Test results reported in patent US6239171A, “Tocotrienols and tocotrienol-like compounds and methods for their use” (Lipogenics, Inc., priority 1998, dated 2001).

How the values were obtained:
HMG-CoA reductase = target: T1, HMG-CoA reductase (Sus scrofa, UniProt Q1W675); assay: Hepatic HMG-CoA reductase activity in hypercholesterolemic swine; type: in vivo; conditions: control diet + 50 ppm
T1 construct: The hepatic enzymatic activity of the HMG-CoA reductase decreased approximately 30%; from tissue; host or cells: pig liver, microsomes
T1 sequence (Q1W675 1-885): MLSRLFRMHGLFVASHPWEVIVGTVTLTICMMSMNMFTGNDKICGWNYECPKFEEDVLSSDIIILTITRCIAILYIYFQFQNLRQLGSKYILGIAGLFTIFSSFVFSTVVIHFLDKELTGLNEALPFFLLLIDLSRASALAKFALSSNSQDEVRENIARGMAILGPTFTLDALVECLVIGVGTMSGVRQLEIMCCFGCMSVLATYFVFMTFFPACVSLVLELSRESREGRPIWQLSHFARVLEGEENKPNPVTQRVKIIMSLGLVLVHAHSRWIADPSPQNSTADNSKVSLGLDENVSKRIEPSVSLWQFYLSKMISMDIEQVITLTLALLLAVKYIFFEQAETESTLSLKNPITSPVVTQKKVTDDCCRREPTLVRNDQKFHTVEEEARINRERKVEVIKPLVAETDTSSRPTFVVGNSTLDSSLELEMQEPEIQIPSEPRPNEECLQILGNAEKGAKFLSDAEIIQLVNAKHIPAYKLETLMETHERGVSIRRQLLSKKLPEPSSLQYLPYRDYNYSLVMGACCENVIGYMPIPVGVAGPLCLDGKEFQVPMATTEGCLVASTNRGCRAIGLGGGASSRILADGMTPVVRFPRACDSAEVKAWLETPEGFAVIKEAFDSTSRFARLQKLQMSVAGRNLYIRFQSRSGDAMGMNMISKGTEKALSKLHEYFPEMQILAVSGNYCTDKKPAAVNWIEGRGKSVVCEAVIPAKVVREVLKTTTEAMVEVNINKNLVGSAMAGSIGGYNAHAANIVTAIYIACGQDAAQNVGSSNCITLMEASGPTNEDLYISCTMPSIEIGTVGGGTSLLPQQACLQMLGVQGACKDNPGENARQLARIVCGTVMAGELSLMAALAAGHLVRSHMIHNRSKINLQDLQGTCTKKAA
Excerpt: (§1) All assays conducted on chicken or swine serum were done following the protocols described in A. A. Qureshi et al., "Lowering Of Serum Cholesterol In Hypercholesterolemic Humans By Tocotrienols" (Palmvitee), Am. J. Clin. Nutr., 53, pp. 1021S-26S (1991). All enzymatic assays were done following the protocols described in A. A. Qureshi et al., "Effects of Cereals and Culture Filtrate of Trichoderma viride on Lipid Metabolism of Swine", Lipids, 17, pp. 924 (1982). Plasma insulin, glucagon and TNF levels were measured using radioinnumoassay kits from Ventrex Laboratories, Inc. (Portland, Me.), ICN Biomedicals, Inc. (Costa Mesa, Calif.) and Genzyme Corp. (Cambridge, Mass.), respectively.
(§2) We next measured the effects of various tocotrienols from rice bran on HMG-CoA reductase and cholesterol 7α-hydroxylase in hypercholesterolemic swine. Since pigs are very similar to humans in their cholesterol metabolism, they provide a useful model from which to study hypercholesterolemia and related diseases. […] The serum cholesterol concentration in these swine is typically above 300-500 mg/dl, as compared to 120-160 mg/dl in normal adult swine. As a result, the pigs develop complicated atherosclerotic plaques that closely resemble advanced atherosclerotic lesions found in humans.
(§3) Each group of three 5-month old swine was administered either a control diet or a control diet supplemented with 50 ppm of TRF or 50 ppm of an individual tocotrienol. The samples were prepared as described in Example 11. After a 12 hour fast, serum and plasma samples were taken a 0 hrs, 21 days and 42 days from the start of the feeding period. After taking serum and plasma samples from the pigs at the end of the 42 day period, all of the swine were fasted for a total of 40 hours, followed by a 48 hour refeeding period. One swine from each group was sacrificed at that time and the liver, intestine, lung, heart, loin muscle, adipose tissue and ham muscle were removed.

Fatty Acid Synthase = target: T2, Fatty Acid Synthase (Gallus gallus, UniProt P12276); assay: Fatty acid synthase activity in isolated chicken hepatocytes; type: cell-based
T2 construct: hepatocytes isolated from livers of 8-week old female chickens; endogenous in cells; host or cells: primary chicken hepatocytes
T2 sequence (P12276 2-2512 limits assumed): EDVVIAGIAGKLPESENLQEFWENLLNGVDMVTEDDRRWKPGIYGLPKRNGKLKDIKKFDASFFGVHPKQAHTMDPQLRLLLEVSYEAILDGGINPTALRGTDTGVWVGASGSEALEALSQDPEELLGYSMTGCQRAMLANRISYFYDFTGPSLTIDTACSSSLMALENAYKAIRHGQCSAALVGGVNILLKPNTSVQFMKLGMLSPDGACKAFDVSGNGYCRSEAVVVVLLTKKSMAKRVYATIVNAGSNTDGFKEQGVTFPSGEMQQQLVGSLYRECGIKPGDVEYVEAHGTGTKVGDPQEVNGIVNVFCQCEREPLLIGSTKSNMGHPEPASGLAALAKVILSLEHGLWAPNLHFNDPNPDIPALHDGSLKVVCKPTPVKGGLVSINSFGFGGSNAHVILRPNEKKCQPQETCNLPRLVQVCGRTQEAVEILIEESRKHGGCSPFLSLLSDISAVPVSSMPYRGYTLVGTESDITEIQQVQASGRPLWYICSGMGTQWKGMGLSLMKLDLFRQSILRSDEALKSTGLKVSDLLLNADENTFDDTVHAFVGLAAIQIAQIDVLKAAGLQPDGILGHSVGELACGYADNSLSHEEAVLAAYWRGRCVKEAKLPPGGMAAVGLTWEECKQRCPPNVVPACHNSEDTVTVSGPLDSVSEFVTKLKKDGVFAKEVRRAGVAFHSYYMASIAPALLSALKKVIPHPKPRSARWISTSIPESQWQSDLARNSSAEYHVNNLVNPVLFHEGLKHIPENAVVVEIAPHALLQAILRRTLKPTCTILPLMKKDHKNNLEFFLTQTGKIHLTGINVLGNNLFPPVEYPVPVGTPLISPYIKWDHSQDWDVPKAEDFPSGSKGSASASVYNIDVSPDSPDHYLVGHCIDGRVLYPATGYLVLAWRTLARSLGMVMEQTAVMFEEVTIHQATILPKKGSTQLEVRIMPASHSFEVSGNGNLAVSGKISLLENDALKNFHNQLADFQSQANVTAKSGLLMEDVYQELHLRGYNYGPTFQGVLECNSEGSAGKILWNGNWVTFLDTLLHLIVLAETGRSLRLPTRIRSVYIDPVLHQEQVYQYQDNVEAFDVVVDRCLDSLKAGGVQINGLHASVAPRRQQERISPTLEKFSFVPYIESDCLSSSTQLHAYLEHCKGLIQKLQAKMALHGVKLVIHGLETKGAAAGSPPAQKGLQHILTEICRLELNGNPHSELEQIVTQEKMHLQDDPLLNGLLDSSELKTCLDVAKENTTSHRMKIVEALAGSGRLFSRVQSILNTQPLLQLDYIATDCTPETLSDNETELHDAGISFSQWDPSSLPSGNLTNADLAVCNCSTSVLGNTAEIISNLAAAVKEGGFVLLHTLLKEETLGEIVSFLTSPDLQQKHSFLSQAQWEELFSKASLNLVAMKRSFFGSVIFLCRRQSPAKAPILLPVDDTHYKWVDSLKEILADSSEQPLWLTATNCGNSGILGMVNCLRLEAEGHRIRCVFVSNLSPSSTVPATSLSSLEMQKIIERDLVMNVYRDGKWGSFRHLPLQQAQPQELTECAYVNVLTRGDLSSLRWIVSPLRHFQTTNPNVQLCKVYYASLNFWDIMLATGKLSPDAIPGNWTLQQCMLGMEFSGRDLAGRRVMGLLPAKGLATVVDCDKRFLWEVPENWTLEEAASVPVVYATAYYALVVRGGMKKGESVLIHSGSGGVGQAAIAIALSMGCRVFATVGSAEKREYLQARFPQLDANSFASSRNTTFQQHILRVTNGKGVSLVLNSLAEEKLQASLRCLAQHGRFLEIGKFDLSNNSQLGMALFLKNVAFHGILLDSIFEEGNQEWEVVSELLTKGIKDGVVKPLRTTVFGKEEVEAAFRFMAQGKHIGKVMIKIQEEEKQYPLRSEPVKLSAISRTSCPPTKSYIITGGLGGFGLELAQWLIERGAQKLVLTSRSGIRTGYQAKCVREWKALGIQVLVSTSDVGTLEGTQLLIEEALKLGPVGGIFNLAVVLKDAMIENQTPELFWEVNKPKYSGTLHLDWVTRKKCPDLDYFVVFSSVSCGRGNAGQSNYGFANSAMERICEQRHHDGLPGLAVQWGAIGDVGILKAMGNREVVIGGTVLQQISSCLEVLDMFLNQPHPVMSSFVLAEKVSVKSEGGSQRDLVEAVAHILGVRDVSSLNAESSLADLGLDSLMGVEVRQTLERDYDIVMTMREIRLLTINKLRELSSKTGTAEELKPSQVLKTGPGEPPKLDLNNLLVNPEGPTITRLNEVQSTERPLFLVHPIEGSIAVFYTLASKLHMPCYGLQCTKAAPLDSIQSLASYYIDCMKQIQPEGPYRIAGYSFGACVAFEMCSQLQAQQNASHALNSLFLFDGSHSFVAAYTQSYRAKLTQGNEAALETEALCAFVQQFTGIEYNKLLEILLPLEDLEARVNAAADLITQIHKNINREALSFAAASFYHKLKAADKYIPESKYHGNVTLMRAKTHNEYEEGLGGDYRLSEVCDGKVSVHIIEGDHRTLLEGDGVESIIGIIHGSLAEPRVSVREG
Protocol: (§4) This study measured the effects of three tocotrienols isolated from rice bran on cholesterol-related enzyme activity in hepatocytes isolated from livers of 8-week old female chickens. The chickens were fed the chick mash diet for 8 weeks. They were then fasted for 40 hours and finally refed for 48 hours before sacrifice. The hepatocytes were then prepared following standard methods.
(§5) Each compound was isolated from TRF using the following protocol: A bond Elute amine column was equilibrated with 2 ml hexane. 10 mg of TRF (dissolved in 0.5 ml hexane) was bound to the amine column. The column was washed with 1 ml of hexane, then with 1 ml of 3% isopropanol in hexane. P-21 and P-25 were eluted off the column with 5% isopropanol in hexane. Then using 10% isopropanol in hexane, the impurity P-20 was eluted. α-tocotrienol was also tested.

chickens [1] = assay: Plasma thromboxane B2 and platelet factor 4 in chickens fed supplemented diets; type: in vivo, chicken; conditions: control diet + 50 ppm, 4 weeks
Excerpt: We next measured the effects of TRF and its components on serum levels of apolipoprotein (a)1, apolipoprotein B, triglycerides and glucose and the plasma levels of thromboxane B2 and platelet factor 4.

chickens [2] = assay: Antibody titers to sheep red blood cells in chickens; type: in vivo, chicken; conditions: 4 weeks; for IgG antibody titers in serum / IgM antibody titers in serum / Total Ab titers in serum: control diet + 50 ppm, sheep red blood cells i.p.
Protocol: The model for this study was 6-week old female white leghorn chickens. Each group of 12 chickens was fed an unsupplemented chicken diet or a control diet supplemented with 50 ppm of a tocotrienol or 100 ppm of a commercially available hypercholesterolemic agent (Geraniol or Lovastatin). […] The chickens were fed over a period of 4 weeks, then the blood was drawn. The antibody response was determined by injecting the chickens i.p. with 0.5 ml of a 5% suspension of sheep red blood cells (RBCs) in PBS (v/v) which were previously washed three times. […] Relative IgG levels were determined by using 2-mercaptoethanol preincubation for 30 min. The relative IgM levels were calculated by subtracting the IgG antibody levels from total antibody levels. All antibody levels are expressed as the log base 2 of the highest titer that was needed to hemagglutinate an equal volume of 0.5% RBC suspension.

[3] = tested on: hypercholesterolemic swine; assay: Body weight gain and feed conversion efficiency in hypercholesterolemic swine; type: in vivo; conditions: control diet + 50 ppm
Protocol: as §3

[4] = tested on: cholesterol 7α-hydroxylase; assay: Hepatic cholesterol 7α-hydroxylase activity in hypercholesterolemic swine; type: in vivo; conditions: control diet + 50 ppm
Excerpt: as §1, §2, §3

[5] = tested on: cholesterol 7α-hydroxylase; assay: Cholesterol 7α-hydroxylase activity in isolated chicken hepatocytes; type: cell-based
Protocol: as §4, §5

| SMILES | HMG-CoA REDUCTASE (HMG-CoA reductase; 21 days) | HMG-CoA REDUCTASE, percentage of 0-time value (HMG-CoA reductase; 21 days) | HMG-CoA REDUCTASE (HMG-CoA reductase; 42 days) | HMG-CoA REDUCTASE, Percentage of Control Activity (HMG-CoA reductase; 42 days) | HMG-CoA REDUCTASE, percentage of 0-time value (HMG-CoA reductase; 42 days) | Fatty Acid Synthase (Fatty Acid Synthase; 10.0 μg/mL) | Fatty Acid Synthase, percentage of 0.0 μg/mL (Fatty Acid Synthase; 10.0 μg/mL) | Fatty Acid Synthase (Fatty Acid Synthase; 20.0 μg/mL) | Platelet Factor 4 (chickens [1]) | Platelet Factor 4, percentage of control (chickens [1]) | Thromboxane B2 (chickens [1]) | Thromboxane B2, percentage of control (chickens [1]) | IgG antibody titers in serum (chickens [2]) | IgM antibody titers in serum (chickens [2]) | Total Ab titers in serum (chickens [2]) | CHOLESTEROL 7α-HYDROXYLASE, percentage of baseline value ([4]; 21 days) | Cholesterol 7α-hydroxylase ([4]; 21 days) | CHOLESTEROL 7α-HYDROXYLASE, Percentage of Control Activity ([4]; 42 days) | CHOLESTEROL 7α-HYDROXYLASE, percentage of baseline value ([4]; 42 days) | Cholesterol 7α-hydroxylase ([4]; 42 days) | other results |
| --- | --- | --- | --- | --- | --- | --- | --- | --- | --- | --- | --- | --- | --- | --- | --- | --- | --- | --- | --- | --- | --- |
| CC(C)=CCC/C(C)=C/CC/C(C)=C/CCC1(C)CCc2cc(O)ccc2O1 (centres unmarked) [P21, 3,4-dihydro-2-methyl-2-(4,8,12-trimethyltrideca-3' (E),7'(E),11'-trienyl)-2H-1-benzopyran-6-ol] | 304.23 pg/min/mg of microsomes | 89.38% | 275.75 pg/min/mg of microsomes | 73.59% | 81.02% | 14.3 nmol/min/mg | 83.1% | 12.7 nmol/min/mg | 7.76 ng/mL | 59.28% | 16.74 pg/mL | 64.78% | 1.50 ± 1.18 Log 2 | 7.17 Log 2 | 8.67 ± 1.92 Log 2 | 99.34% | 4.50 pg/min/mg of microsomes | 98.38% | 102.21% | 4.63 pg/min/mg of microsomes | Fatty Acid Synthase, percentage of 0.0 μg/mL (Fatty Acid Synthase; 20.0 μg/mL): 73.8%; Fatty Acid Synthase (Fatty Acid Synthase; 40.0 μg/mL): 11.8 nmol/min/mg; Fatty Acid Synthase, percentage of 0.0 μg/mL (Fatty Acid Synthase; 40.0 μg/mL): 68.6%; Fatty Acid Synthase (Fatty Acid Synthase; 80.0 μg/mL): 10.2 nmol/min/mg; Fatty Acid Synthase, percentage of 0.0 μg/mL (Fatty Acid Synthase; 80.0 μg/mL): 59.3%; increase of feed conversion efficiency [3]: 7%; Cholesterol 7α-hydroxylase ([5]; 10.0 μg/mL): 2.41 pmol/min/mg; Cholesterol 7α-hydroxylase, percentage of 0.0 μg/mL ([5]; 10.0 μg/mL): 104.3%; Cholesterol 7α-hydroxylase ([5]; 20.0 μg/mL): 3.40 pmol/min/mg; Cholesterol 7α-hydroxylase, percentage of 0.0 μg/mL ([5]; 20.0 μg/mL): 103.9%; Cholesterol 7α-hydroxylase ([5]; 40.0 μg/mL): 2.39 pmol/min/mg; Cholesterol 7α-hydroxylase, percentage of 0.0 μg/mL ([5]; 40.0 μg/mL): 103.5%; Cholesterol 7α-hydroxylase ([5]; 80.0 μg/mL): 1.37 pmol/min/mg; Cholesterol 7α-hydroxylase, percentage of 0.0 μg/mL ([5]; 80.0 μg/mL): 102.6% |
| CC(C)=CCC/C(C)=C/CC/C(C)=C/CCC1CCc2cc(O)ccc2O1 (centres unmarked) [P25, 3,4-dihydro-2-(4,8,12-trimethyltrideca-3'(E),7'(E),11'-trienyl)-2H-1-benzopyran-6-ol] | 307.27 pg/min/mg of microsomes | 87.58% | 269.43 pg/min/mg of microsomes | 69.75% | 76.79% | 16.2 nmol/min/mg | 94.2% | 14.3 nmol/min/mg | 7.27 ng/mL | 55.54% | 16.42 pg/mL | 63.54% | 2.43 ± 1.40 Log 2 | 8.92 Log 2 | 10.30 ± 1.16 Log 2 | 101.09% | 4.62 pg/min/mg of microsomes | 98.58% | 102.41% | 4.68 pg/min/mg of microsomes | Fatty Acid Synthase, percentage of 0.0 μg/mL (Fatty Acid Synthase; 20.0 μg/mL): 83.1%; Fatty Acid Synthase (Fatty Acid Synthase; 40.0 μg/mL): 12.7 nmol/min/mg; Fatty Acid Synthase, percentage of 0.0 μg/mL (Fatty Acid Synthase; 40.0 μg/mL): 73.8%; Fatty Acid Synthase (Fatty Acid Synthase; 80.0 μg/mL): 12.1 nmol/min/mg; Fatty Acid Synthase, percentage of 0.0 μg/mL (Fatty Acid Synthase; 80.0 μg/mL): 70.3%; total antibody titer and IgM titer compared to the control (in words) (chickens [2]; 50 ppm in diet): increased; increase of feed conversion efficiency [3]: 10%; Cholesterol 7α-hydroxylase ([5]; 10.0 μg/mL): 2.33 pmol/min/mg; Cholesterol 7α-hydroxylase, percentage of 0.0 μg/mL ([5]; 10.0 μg/mL): 100.9%; Cholesterol 7α-hydroxylase ([5]; 20.0 μg/mL): 2.37 pmol/min/mg; Cholesterol 7α-hydroxylase, percentage of 0.0 μg/mL ([5]; 20.0 μg/mL): 102.61%; Cholesterol 7α-hydroxylase ([5]; 40.0 μg/mL): 2.44 pmol/min/mg; Cholesterol 7α-hydroxylase, percentage of 0.0 μg/mL ([5]; 40.0 μg/mL): 105.6%; Cholesterol 7α-hydroxylase ([5]; 80.0 μg/mL): 2.37 pmol/min/mg; Cholesterol 7α-hydroxylase, percentage of 0.0 μg/mL ([5]; 80.0 μg/mL): 102.6% |
| CC(C)=CCC/C(C)=C/CC/C(C)=C/CCC1(C)CCc2cc(O)c(C)c(C)c2O1 (centres unmarked) [γ-T3, γ-tocotrienol, reference compound] | 300.72 pg/min/mg of microsomes | 86.19% | 280.88 pg/min/mg of microsomes | 73.31% | 80.71% | – | – | – | 8.36 ng/mL | 63.87% | 19.22 pg/mL | 74.38% | 1.28 Log 2 | 5.83 ± 1.53 Log 2 | 6.60 ± 1.51 Log 2 | 100.89% | 4.53 pg/min/mg of microsomes | 98.18% | 102.00% | 4.58 pg/min/mg of microsomes | – |
